Consider 13 molecules from patent US20230303556A1, “PIPERAZINE SUBSTITUTED INDAZOLE COMPOUNDS AS INHIBITORS OF PARG” (IDEAYA BIOSCIENCES, INC., priority 2022, published 2023).

≈ marks a conversion by molar mass, not a printed value. Read-outs that look alike come from different tables or passages of the source. A value given as a limit tells only on which side of the number the result lay.

Data set [1] has as its system SNU601-NucLight Red cells. The data set is described as follows: Cellular viability assay, SNU601-NucLight Red. The class given is cell-based. As to conditions: SNU-601, 168 h, 7 days incubation, geometric mean. Here is the method: (§1) The ability of the compounds disclosed herein to inhibit PARG was determined in the following two cell lines: RMUGS-NucLight Red and SNU601-NucLight Red. RMUGS-NucLight Red and SNU601-NucLight Red cells were generated by stably transducing parental cells (RMUGS-JCRB Cell Bank, Cat no: IF050320; SNU601-Korean Cell Line Bank, Cat no:00601) with Incucyte® NucLight Red lentivirus (Sartorius, Cat no: 4476). Described below are the protocols followed for both the cell lines.
(§2) The cells were plated at 200 cells/well in a 384-well black plate with clear flat bottom. After 24 hours, the plates were imaged using the Incucyte® S3 Live-Cell Analysis system and the number of live cells in each well (Day 0) was counted. Test compounds were then added by Tecan digital dispenser to generate a 9 point dose curve with a 3 fold dilution and 10 uM top concentration. All treatments were done in triplicates. After 7 days of incubation, the plates were imaged using the Incucyte® S3 system and the number of live cells per well (Day 7) was counted. For every well on the plate, the live cell counts on day 7 was normalized to the cell counts from day 0 (Day 7/Day 0). Average values of DMSO treated wells in a plate were calculated. All the data points were normalized to that of the average DMSO value. The % of control for each sample was compared to DMSO treated control samples. EC50 values were calculated in Collaborative Drug Discovery vault (CDD). Curves were fitted by CDD as % of control vs. log [compound concentration] using a 4-parameter inhibition model (Levenberg-Marquardt algorithm):
(§3) Fit=(A+((B−A)/(1+((C/x)^D))))
When clear bi-phasic behavior was observed on the resulting data the EC50 was calculated in GraphPad Prism Software for the major fraction of the response using the following formula:
Section1=Span*Frac/(1+10^((Log EC50_1−X)*nH1))
Section2=Span*(1−Frac)/(1+10^((Log EC50_2−X)*nH2))

Data set [2] deals with RMUGS-NucLight Red cells. The data set is described as follows: Cellular viability assay, RMUGS-NucLight Red. The class given is cell-based. As to conditions: 168 h, 7 days incubation, geometric mean. The procedure: as §1
as §2, with “1000” for “200”, “96-well” for “384-well”, “duplicates.” for “triplicates.”, “[…]” for “EC50”
as §3

Data set [3] has as its target hPARG (Homo sapiens (Human), UniProt Q86W56). The data set is described as follows: Inhibition of PARG enzymatic assay (TR-FRET). The class given is biochemical. As to conditions: geometric mean; 1 hr compound/enzyme pre-incubation. Here is the method:
PARG enzyme was incubated with compound or vehicle (DMSO) and the biotinylated-PARylated PARP-1 substrate in a microtiter plate. After adding detection antibody and streptavidin-europium, and then incubating, the plate was read for fluorescence intensity. The low control (DMSO) with low fluorescence intensity represents no inhibition of enzymatic activity, while the high control (no enzyme) with high fluorescence intensity represents full inhibition of enzymatic activity.
• 0% inhibition: DMSO • 100% inhibition: No enzyme Enzyme reaction and Detection: • 1. Transfer 200 nL of 100× compound or DMSO to the appropriate wells of a 384 well white polystyrene microtitre plate (Corning Catalog #3574). • 2. Transfer 10 uL of 2× final concentration of enzyme in assay buffer or assay buffer alone to the appropriate wells. • 3. Centrifuge the plate at 1000 rpm for 30 seconds. • 4. Incubate the plate at room temperature for 1 hour. • 5. Transfer 10 uL of 2× substrate in assay buffer to all test wells. • 6. Incubate the plate at room temperature for 10 minutes • 7. Transfer 10 uL of 3× mixture of 42 nM detection antibody and 2.25 nM streptavidin-europium in 50 mM Tris-HCL pH 7.4 to all test wells. • 8. Incubate the plate at room temperature for 1 hour. • 9. Read the plate on a plate reader (Envision) • Excitation: 317 nm • Emission: 620 nm • Emission: 665 nm
EC50 values were calculated in Collaborative Drug Discovery vault (CDD). Curves were fitted by CDD as response (%) vs compound concentration (uM) using a 4-parameter inhibition model using Formula 1.
as §3

The nature of data set [4]: Kinetic solubility in PBS pH 2.0 and pH 7.4. Type of data set: physicochemical. The conditions noted are these: aqueous buffer, kinetic from dmso stock, * n <3 runs. Here is the method: • Control compound diclofenac sodium (LOT #BCBW9128) was purchased from Sigma Chemical Co. • 1.5 mL glass flat bottom vials (BioTech Solutions) • Molded PTFE/SIL plugs (BioTech Solutions) • PTFE encapsulated stir stick (V&P Scientific) • MultiScreenHTS HV (0.45 μm) 96 well plate (Millipore, MSHVN4510 or MSHVN4550) • Eppendorf Thermomixer Comfort • Vacuum Manifold ORVMN96. • PBS pH 2.0 and pH 7.4 was prepared in our laboratory
• diclofenac sodium (LOT #BCBW9128), Sigma Chemical Co.
• 1. Preparation of stock solutions. The stock solutions of test compounds and control compound diclofenac sodium were prepared in DMSO at the concentration of 30 mM and 10 mM, respectively. • 2. Procedure for solubility determination. 10 μL of stock solutions (30 mM) of test compounds was placed in order into their proper 96-well rack, 20 μL of DMSO and 970 μL of PBS pH 2.0 or pH 7.4 was added into each vial of the cap-less Solubility Sample plate; 30 μL of stock solution (10 mM) of control compound was placed in order into its proper 96-well rack, 970 μL of PBS pH 2.0 or pH 7.4 was added into each vial of the cap-less Solubility Sample plate. The assay was performed in duplicate. One stir stick was added to each vial and seal using a molded PTFE/Silicone plug. Then the Solubility Sample plate was transferred to the Eppendorf Thermomixer Comfort plate shaker and shaken at 25° C. at 1100 RPM for 24 hours. After completion of the 24 hours, plugs were removed and the stir sticks were removed using a big magnet, the samples from the Solubility Sample plate were transferred into the filter plate. Using the Vacuum Manifold, all the samples were filtered. Aliquot of 10 μL was taken from the filtrate followed by addition of 990 μL of a mixture of H2O and acetonitrile (1:1 in v/v). 200 μL of diluent was transferred to a new 96-well plate for LC-MS/MS analysis. The dilution factor was changed according to the solubility values and the LC-MS signal response. • 3. Preparation of 3 μM standards (STD). From the 10 mM or 30 mM DMSO STD plate, 15 μL or 5 μL was transferred into the remaining empty plate, and then 485 μL or 495 μL of DMSO was added to that plate to have a STD concentration of 300 μM. From the 300 μM DMSO STD plate, 5 μL was transferred into the remaining empty plate, and then 495 μL of a mixture of H2O and acetonitrile (1:1 in v/v) was added to that plate to have a final STD concentration of 3 μM. 200 μL of diluent was transferred to a new 96-well plate for LC-MS/MS analysis. The concentrations of the standard samples were changed according to the LC-MS signal response. • 4. Procedure for sample analysis. The plate was placed into the well plate autosampler. The samples were evaluated by LC-MS/MS analysis.

[5] abbreviates: PBS pH 2.0, 25° C., read-out: Kinetic Solubility pH 2.0.
[6] abbreviates: PBS pH 7.4, 25° C., read-out: Kinetic Solubility pH 7.4.

hPARG, sequence (Q86W56 whole entry): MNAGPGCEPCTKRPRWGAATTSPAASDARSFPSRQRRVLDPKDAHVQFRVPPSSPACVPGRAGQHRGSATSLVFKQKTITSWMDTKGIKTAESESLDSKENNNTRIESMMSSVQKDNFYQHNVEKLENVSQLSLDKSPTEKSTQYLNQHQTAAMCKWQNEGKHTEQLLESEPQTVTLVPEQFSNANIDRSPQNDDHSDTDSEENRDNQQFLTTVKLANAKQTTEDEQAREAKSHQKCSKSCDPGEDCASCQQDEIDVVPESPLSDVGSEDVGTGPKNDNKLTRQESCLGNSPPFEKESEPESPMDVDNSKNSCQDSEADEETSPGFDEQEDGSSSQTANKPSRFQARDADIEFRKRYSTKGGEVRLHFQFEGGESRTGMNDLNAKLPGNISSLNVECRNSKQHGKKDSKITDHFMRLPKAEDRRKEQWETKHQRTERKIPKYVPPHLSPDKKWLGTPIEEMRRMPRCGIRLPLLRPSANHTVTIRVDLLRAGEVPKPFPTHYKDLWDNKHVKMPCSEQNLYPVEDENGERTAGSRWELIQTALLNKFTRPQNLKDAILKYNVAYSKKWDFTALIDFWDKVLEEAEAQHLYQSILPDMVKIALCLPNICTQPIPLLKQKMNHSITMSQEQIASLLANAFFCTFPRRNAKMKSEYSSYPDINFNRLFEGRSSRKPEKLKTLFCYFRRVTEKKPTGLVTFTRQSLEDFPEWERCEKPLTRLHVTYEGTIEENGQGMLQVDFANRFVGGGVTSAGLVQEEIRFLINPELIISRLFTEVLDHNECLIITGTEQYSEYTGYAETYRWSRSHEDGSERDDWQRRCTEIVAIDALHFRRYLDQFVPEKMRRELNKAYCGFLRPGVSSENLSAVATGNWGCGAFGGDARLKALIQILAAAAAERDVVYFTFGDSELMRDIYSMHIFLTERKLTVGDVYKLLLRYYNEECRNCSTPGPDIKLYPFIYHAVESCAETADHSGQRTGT

Turning to `C[C@@H]1CN(c2cc(S(=O)(=O)NC3(C)CC3)cc3c2cnn3-c2nnc(C(F)F)s2)C[C@H](C)N1`, the EC50 in data set [1] came to 27 nM; in data set [2], 11 nM; in data set [3] it was 15 nM. The solubility (kinetic) at 24 h in data set [4] (setting [5]) amounted to 271 µM (≈ 135 µg/mL); in data set [4] (setting [6]), 31 µM (≈ 15.4 µg/mL).
As for `C[C@@H]1CN(c2cc(S(=O)(=O)NC3(C)CC3)cc3c2cnn3-c2nnc(C(F)F)s2)C[C@@H](C)N1`, the EC50 was determined as 89 nM in data set [1], 32 nM in data set [2] and 51 nM in data set [3]. The kinetic solubility at 24 h was 261 µM (≈ 130 µg/mL) in data set [4] (setting [5]) and 41 µM (≈ 20.4 µg/mL) in data set [4] (setting [6]).
The matching figures for `Cc1nnc(-n2ccc3ccc(S(=O)(=O)NC4(C)CC4)cc32)s1`: over 10000 nM, over 10000 nM, over 10000 nM, 29 µM (≈ 10.1 µg/mL) and 24 µM (≈ 8.36 µg/mL).
The corresponding values for `CC(C)C(=O)N1CCN(c2cc(S(=O)(=O)NC3(C#N)CC3)cc3c2cnn3-c2nnc(C(F)F)s2)CC1` are 104 nM, 64 nM, 19 nM, 1.1 µM (≈ 0.606 µg/mL) and 2.1 µM (≈ 1.16 µg/mL).
The matching figures for `CC(C)C(=O)N1CCN(c2cc(S(=O)(=O)NC3(C#N)CC3)cc3c2cnn3-c2nnc(C(F)F)s2)C[C@H]1C`: 146 nM, 75 nM, 39 nM, 2.1 µM (≈ 1.19 µg/mL) and 5.6 µM (≈ 3.16 µg/mL).
Consider `CC(C)C(=O)N1CCN(c2cc(S(=O)(=O)NC3(C#N)CC3)cc3c2cnn3-c2nnc(C(F)F)s2)C[C@@H]1C`, for which the figures for the EC50 in data set [1], in data set [2] and in data set [3] were 184 nM, 137 nM and 76 nM, respectively. Moreover, the solubility (kinetic) at 24 h in data set [4] (setting [5]) stood at 3.4 µM (≈ 1.92 µg/mL); in data set [4] (setting [6]), 8 µM (≈ 4.52 µg/mL).
Regarding `CC(C)C(=O)N1[C@H](C)CN(c2cc(S(=O)(=O)NC3(C#N)CC3)cc3c2cnn3-c2nnc(C(F)F)s2)C[C@@H]1C`, the EC50 in data set [1] came out at 178 nM; in data set [2] it was 101 nM; in data set [3], 79 nM. For the same molecule, the kinetic solubility at 24 h in data set [4] (setting [5]) and in data set [4] (setting [6]) was under 0.03 µM in each case.
Take `CN1CCN(c2cc(S(=O)(=O)NC3(C#N)CC3)cc3c2cnn3-c2nnc(C(F)F)s2)CC1`: the figures for the EC50 in data set [1], in data set [2] and in data set [3] were 1580 nM, 439 nM and 201 nM, respectively. Moreover, the kinetic solubility at 24 h in data set [4] (setting [5]) came to 289 µM (≈ 143 µg/mL); in data set [4] (setting [6]), 2.7 µM (≈ 1.34 µg/mL).
The corresponding values for `CN(C)C(=O)N1CCN(c2cc(S(=O)(=O)NC3(C)CC3)cc3c2cnn3-c2nnc(C(F)F)s2)CC1` are 36 nM, 8.3 nM, 7.3 nM, 0.2 µM (≈ 0.108 µg/mL) and 0.3 µM (≈ 0.162 µg/mL).
The corresponding values for `CN(C)C(=O)N1CCN(c2cc(S(=O)(=O)NC3(C#N)CC3)cc3c2cnn3-c2nnc(C(F)F)s2)CC1` are 81 nM, 49 nM, 6.6 nM, 1 µM (≈ 0.552 µg/mL) and 1.4 µM (≈ 0.772 µg/mL).
The corresponding values for `C[C@@H]1CN(c2cc(S(=O)(=O)NC3(C#N)CC3)cc3c2cnn3-c2nnc(C(F)F)s2)CCN1C(=O)N(C)C` are 84 nM, 60 nM, 9.9 nM, 7.2 µM (≈ 4.07 µg/mL) and 14 µM (≈ 7.92 µg/mL).
As to `C[C@H]1CN(c2cc(S(=O)(=O)NC3(C#N)CC3)cc3c2cnn3-c2nnc(C(F)F)s2)CCN1C(=O)N(C)C`, the EC50 in data set [1] was 110 nM; in data set [2], 77 nM; in data set [3], 14 nM. The results for the solubility (kinetic) at 24 h in data set [4] (setting [5]) and in data set [4] (setting [6]) were 7.8 µM (≈ 4.41 µg/mL) and 14 µM (≈ 7.92 µg/mL), respectively.
The corresponding values for `C[C@H]1CN(c2cc(S(=O)(=O)NC3(C)CC3)cc3c2cnn3-c2nnc(C(F)F)s2)C[C@H](C)N1` [drawing 29] are 11 nM, 4.2 nM, 1.9 nM, 282 µM (≈ 140 µg/mL) and 42 µM (≈ 20.9 µg/mL).
